Experimental data as given in PMC11008251, “Distribution of 2,2′,5,5′-Tetrachlorobiphenyl (PCB52) Metabolites in Adolescent Rats after Acute Nose-Only Inhalation Exposure” (Environmental Science & Technology, 2024).

Experiments:
[1] = LC-HRMS analysis of PCB52 metabolites in tissues after 4 h nose-only inhalation; type: in vivo, Sprague–Dawley rats
Description: The Institutional Animal Care and Use Committee of the University of Iowa approved all of the animal protocols. Animals were housed in a temperature- and humidity-controlled room (21 °C, 55% relative humidity) with a 12 h light/dark cycle in an Association for the Assessment and Accreditation of Laboratory Animal Care (AAALAC) accredited animal facility. Animals were provided with food (sterile Teklad 5% stock diet, Harlan, Madison, WI) and water ad libitum throughout the study. Thirty-six male and female Sprague–Dawley rats (7 weeks of age; Charles River, Wilmington, MA) were allowed to acclimate to the animal facility for 8 days after arrival. Prior to exposure, rats (227 ± 27 and 197 ± 13 g, male and female, respectively) were randomly assigned to the exposure groups (n = 6 per group) using a random number generated (Excel, version 2307). Animals were simultaneously exposed for 4 h to a low or high concentration of PCB52-laden per sex) or filtered lab air (Figure 1A). Exposure duration was limited to 4 h along with scheduled training days (30 min at 55 days of age and 2 h at 56 days of age) to acclimate animals and minimize stress. […]
Tissues (brain, cecum and intestinal content, liver, lung, and serum) were homogenized and extracted for LC-HRMS analysis following a published approach; see the Supporting Information.[19] Extracts were analyzed at the High-Resolution Mass Spectrometry Facility at the University of Iowa on a Q-Exactive Orbitrap mass spectrometer (Thermo Fisher Scientific, Waltham, MA, U.S.A.) with an Axquity UPLC-C18 column (particle size: […], 2.1 × 100 mm, Waters, Milford, MA, U.S.A.); see the Supporting Information. […]
All analyses were conducted by using validated standard operating procedures. […] X1-OH-PCB52 estimated concentrations were calculated based on the relative response factor of 4-OH-PCB52. The precision and recoveries of the analyses were further assessed by measuring the recovery of PCB52 and 4-OH-PCB52 from spiked sample blanks and matched blank tissue matrices (Table S6). […]
were extracted and analyzed in parallel. […]

[2] = Body and organ weights after PCB52 nose-only inhalation; type: in vivo, Sprague–Dawley rats; conditions: for Relative Organ Weights, Brain / Relative Organ Weights, Kidneys / Relative Organ Weights, Liver / Relative Organ Weights, Lung / Relative Organ Weights, Ovaries / Relative Organ Weights, Spleen / Relative Organ Weights, Thymus / Relative Organ Weights, Testies: mean (standard deviation); for Adrenal Glands weight / Body Weight Post Exposure / Kidneys weight / Liver weight / Lung weight / Reproductive organ weight / Spleen weight / Thymus weight: n=6
Description: The Institutional Animal Care and Use Committee of the University of Iowa approved all of the animal protocols. Animals were housed in a temperature- and humidity-controlled room (21 °C, 55% relative humidity) with a 12 h light/dark cycle in an Association for the Assessment and Accreditation of Laboratory Animal Care (AAALAC) accredited animal facility. Animals were provided with food (sterile Teklad 5% stock diet, Harlan, Madison, WI) and water ad libitum throughout the study. Thirty-six male and female Sprague–Dawley rats (7 weeks of age; Charles River, Wilmington, MA) were allowed to acclimate to the animal facility for 8 days after arrival. Prior to exposure, rats (227 ± 27 and 197 ± 13 g, male and female, respectively) were randomly assigned to the exposure groups (n = 6 per group) using a random number generated (Excel, version 2307). Animals were simultaneously exposed for 4 h to a low or high concentration of PCB52-laden per sex) or filtered lab air (Figure 1A). Exposure duration was limited to 4 h along with scheduled training days (30 min at 55 days of age and 2 h at 56 days of age) to acclimate animals and minimize stress. […] Animal exposure occurred for 4 h at 57 days of age. Rats are considered adolescents at this age.[38] Serum was collected immediately after the animals were removed from the nose-only apparatus by cardiac puncture under isoflurane anesthesia. Rats were perfused with saline, and organs were excised and stored at −80 °C. Body and organ weights, including brain, lungs, and thymus, were not altered by PCB52 inhalation regardless of sex or exposure (Tables S2 and S3).

Clc1ccc(Cl)c(-c2cc(Cl)ccc2Cl)c1 [PCB52, 2,2′,5,5′-tetrachlorobiphenyl]
number of PCB52 metabolites identified by LC-HRMS ([1]; liver): 7 metabolites | number of PCB52 metabolites identified by LC-HRMS ([1]; lung): 9 metabolites | number of PCB52 metabolites identified by LC-HRMS ([1]; serum): 9 metabolites | Relative Organ Weights, Brain ([2]; Females, High): 0.010 (0.001) g/g BW | Relative Organ Weights, Kidneys ([2]; Females, High): 0.009 (0.001) g/g BW | Relative Organ Weights, Liver ([2]; Females, High): 0.042 (0.003) g/g BW | Relative Organ Weights, Lung ([2]; Females, High): 0.006 (0.001) g/g BW | Relative Organ Weights, Ovaries ([2]; Females, High): 0.003 (0.001) g/g BW | Relative Organ Weights, Spleen ([2]; Females, High): 0.002 (0.001) g/g BW | Relative Organ Weights, Thymus ([2]; Females, High): 0.003 (0.001) g/g BW | Relative Organ Weights, Brain ([2]; Females, Low): 0.010 (0.001) g/g BW | Relative Organ Weights, Kidneys ([2]; Females, Low): 0.009 (0.001) g/g BW | Relative Organ Weights, Liver ([2]; Females, Low): 0.044 (0.002) g/g BW | Relative Organ Weights, Lung ([2]; Females, Low): 0.007 (0.001) g/g BW | Relative Organ Weights, Ovaries ([2]; Females, Low): 0.003 (0.001) g/g BW | Relative Organ Weights, Spleen ([2]; Females, Low): 0.003 (0.001) g/g BW | Relative Organ Weights, Thymus ([2]; Females, Low): 0.003 (0.001) g/g BW | Adrenal Glands weight ([2]; High exposure group, female): 0.06 grams | Body Weight Post Exposure ([2]; High exposure group, female): 196.92 ± 9.39 grams | Kidneys weight ([2]; High exposure group, female): 1.85 grams | Liver weight ([2]; High exposure group, female): 8.29 grams | Lung weight ([2]; High exposure group, female): 1.23 grams | Reproductive organ weight ([2]; High exposure group, female): 0.59 ± 0.16 grams | Spleen weight ([2]; High exposure group, female): 0.44 grams | Thymus weight ([2]; High exposure group, female): 0.58 ± 0.06 grams | Adrenal Glands weight ([2]; High exposure group, male): 0.03 grams | Body Weight Post Exposure ([2]; High exposure group, male): 192.17 ± 22.01 grams | Kidneys weight ([2]; High exposure group, male): 1.73 grams | Liver weight ([2]; High exposure group, male): 9.28 grams | Lung weight ([2]; High exposure group, male): 1.52 grams | Reproductive organ weight ([2]; High exposure group, male): 1.82 ± 0.52 grams | Spleen weight ([2]; High exposure group, male): 0.53 grams | Thymus weight ([2]; High exposure group, male): 0.56 ± 0.05 grams | Adrenal Glands weight ([2]; Low exposure group, female): 0.04 grams | Body Weight Post Exposure ([2]; Low exposure group, female): 183.46 ± 14.31 grams | Kidneys weight ([2]; Low exposure group, female): 1.70 grams | Liver weight ([2]; Low exposure group, female): 8.11 grams | Lung weight ([2]; Low exposure group, female): 1.24 grams | Reproductive organ weight ([2]; Low exposure group, female): 0.55 ± 0.10 grams | Spleen weight ([2]; Low exposure group, female): 0.47 grams | Thymus weight ([2]; Low exposure group, female): 0.61 ± 0.12 grams | Adrenal Glands weight ([2]; Low exposure group, male): 0.04 grams | Body Weight Post Exposure ([2]; Low exposure group, male): 228.20 ± 14.09 grams | Kidneys weight ([2]; Low exposure group, male): 1.99 grams | Liver weight ([2]; Low exposure group, male): 10.31 grams | Lung weight ([2]; Low exposure group, male): 1.48 grams | Reproductive organ weight ([2]; Low exposure group, male): 2.51 ± 0.14 grams | Spleen weight ([2]; Low exposure group, male): 0.59 grams | Thymus weight ([2]; Low exposure group, male): 0.70 ± 0.15 grams | Relative Organ Weights, Brain ([2]; Males, High): 0.010 (0.001) g/g BW | Relative Organ Weights, Kidneys ([2]; Males, High): 0.009 (0.001) g/g BW | Relative Organ Weights, Liver ([2]; Males, High): 0.048 (0.003) g/g BW | Relative Organ Weights, Lung ([2]; Males, High): 0.008 (0.002) g/g BW | Relative Organ Weights, Spleen ([2]; Males, High): 0.003 (0.001) g/g BW | Relative Organ Weights, Testies ([2]; Males, High): 0.009 (0.002) g/g BW | Relative Organ Weights, Thymus ([2]; Males, High): 0.003 (0.001) g/g BW | Relative Organ Weights, Brain ([2]; Males, Low): 0.008 (0.001) g/g BW | Relative Organ Weights, Kidneys ([2]; Males, Low): 0.009 (0.001) g/g BW | Relative Organ Weights, Liver ([2]; Males, Low): 0.045 (0.002) g/g BW | Relative Organ Weights, Lung ([2]; Males, Low): 0.007 (0.002) g/g BW | Relative Organ Weights, Spleen ([2]; Males, Low): 0.003 (0.001) g/g BW | Relative Organ Weights, Testies ([2]; Males, Low): 0.011 (0.001) g/g BW | Relative Organ Weights, Thymus ([2]; Males, Low): 0.003 (0.001) g/g BW | Body and organ weights, including brain, lungs, and thymus ([2]; regardless of sex or exposure): not altered
